Results from paper PMC6264767 (Molecules, 2011).
Read-outs that look alike come from different tables or passages of the source.

Tests used:
[1] = tested on: Vesicular stomatitis virus; test: microbe, parasite or virus in culture; assay type: cell-based; conditions: HEL, read-out: EC50 Vesicular stomatitis virus
Vaccinia virus = test: microbe, parasite or virus in culture; assay type: cell-based; conditions: Orthopoxvirus vaccinia, HEL
HEL cell cultures = conditions: for MCC (minimum cytotoxic concentration): human
HSV-1 (KOS) = test: microbe, parasite or virus in culture; assay type: cell-based, herpes simplex virus type 1; conditions: Human alphaherpesvirus 1, HEL
HSV-2 (G) = test: microbe, parasite or virus in culture; assay type: cell-based, herpes simplex virus type 2; conditions: Human alphaherpesvirus 2, HEL
HSV-1 TK^− KOS ACV^r = test: microbe, parasite or virus in culture; assay type: cell-based, herpes simplex virus-1; conditions: Human alphaherpesvirus 1, HEL
in vitro = conditions: cat
Feline Herpes Virus = test: organism not typed; assay type: cell-based; conditions: CRFK, read-out: EC50 Feline Herpes Virus
[2] = tested on: Feline Corona Virus (FIPV); test: microbe, parasite or virus in culture; assay type: cell-based; conditions: Alphacoronavirus 1, CRFK, read-out: EC50 Feline Corona Virus (FIPV)
[3] = read-out: EC50 HSV-1 TK^− KOS ACV^r
[4] = read-out: inhibitory activity against HSV-1 (KOS), one range given for several viruses
[5] = read-out: inhibitory activity against HSV-2 (G), one range given for several viruses
[6] = read-out: inhibitory activity against HSV-1 TK^− KOS (ACV^r), one range given for several viruses

SMILES | EC50 [1] | melting point | EC50 (Vaccinia virus; read-out: EC50 Vaccinia virus) | MCC (minimum cytotoxic concentration) (HEL cell cultures) | EC50 (HSV-1 (KOS); read-out: EC50 HSV-1 (KOS)) | EC50 (HSV-2 (G); read-out: EC50 HSV-2 (G)) | EC50 (HSV-1 TK^− KOS ACV^r; [3]) | cytostatic activity at 100 µM (HEL cell cultures; 100 µM) | EC50 (HSV-1 (KOS); [4]) | EC50 (HSV-2 (G); [5]) | EC50 (HSV-1 TK^− KOS ACV^r; [6]) | CC50 (in vitro) | EC50 (Feline Herpes Virus) | EC50 [2] | EC50 (Vaccinia virus; read-out: inhibitory activity against vaccinia virus, one range given for several viruses)
COc1cc(C(c2c(O)c3ccccc3oc2=O)c2c(O)c3ccccc3oc2=O)cc([N+](=O)[O-])c1O [Compound 15, 3,3′-(4-Hydroxy-3-methoxy-5-nitrobenzylidene)-bis-[4-hydroxycoumarin]] | > 100 µM | 199.6 °C | > 100 µM | >100 µM | > 100 µM | > 100 µM | > 100 µM | – | – | – | – | – | – | – | –
O=c1oc2ccccc2c(O)c1C1c2cc([N+](=O)[O-])ccc2Oc2c1c(=O)oc1ccccc21 (stereo not drawn) [Compound 19, 3-[6-Oxo-(1H)-18-nitrobenzopyrano[4,3-b]benzopyran-7-yl]-4-hydroxycoumarin] | > 100 µM | 315.7 °C | > 100 µM | >100 µM | 50 µM | 45 µM | 50 µM | no cytotostatic activity | 45 to 50 µM | 45 to 50 µM | 45 to 50 µM | – | – | – | –
Nc1nc2c(ncn2COCCO)c(=O)[nH]1 [Acyclovir, reference compound] | > 250 µM | – | > 250 µM | >250 µM | 0.3 µM | 0.35 µM | 20 µM | – | – | – | – | – | – | – | –
COc1ccccc1C(c1c(O)c2ccccc2oc1=O)c1c(O)c2ccccc2oc1=O [Compound 5, 3,3′-(2-Methoxybenzylidene)bis[4-hydroxycoumarin]] | – | – | – | – | – | – | – | – | – | – | – | 36 µM | 5 µM | 7.5 µM | –
O=c1oc2ccccc2c(O)c1C(c1ccc(Cl)cc1)c1c(O)c2ccccc2oc1=O [Compound 4, 3,3’-(4-Chlorobenzylidene)-bis-[4-hydroxycoumarin]] | – | – | – | – | – | – | – | – | – | – | – | 45 µM | 7.6 µM | 9.1 µM | –
COc1cc(OC)c2c(c1)Oc1c(c(=O)oc3ccccc13)C2c1c(O)c2ccccc2oc1=O (stereo not drawn) [Compound 20, 3-[6-oxo-(1H)-15,17-dimethoxybenzopyrano[4,3-b]benzopyran-7-yl]-4-hydroxycoumarin] | > 20 µM | 287.9 °C | > 20 µM | 100 µM | > 20 µM | > 20 µM | > 20 µM | – | – | – | – | 27 µM | 7.1 µM | 6.4 µM | –
CSc1ccc(C(c2c(O)c3ccccc3oc2=O)c2c(O)c3ccccc3oc2=O)cc1 [Compound 11, 3,3′-(4-Methyltiobenzylidene)-bis-[4-hydroxycoumarin]] | > 20 µM | 258.7 °C | > 20 µM | 100 µM | > 20 µM | > 20 µM | > 20 µM | – | – | – | – | – | – | – | –
O=c1oc2ccccc2c(O)c1C(c1ccccc1)c1c(O)c2ccccc2oc1=O [Compound 1, 3,3′-(Benzilidene)-bis-[4-hydroxycoumarin]] | – | – | – | – | – | – | – | – | – | – | – | 43 µM | 9.1 µM | 7.5 µM | –
O=c1oc2ccccc2c(O)c1C(c1cccc(Br)c1)c1c(O)c2ccccc2oc1=O [Compound 3, 3,3′-(3-Bromobenzylidene)-bis-[4-hydroxycoumarin]] | > 20 µM | 287 °C | 11 µM | – | 9 µM | 9 µM | 9 µM | – | 9 to 12 µM | 9 to 12 µM | 9 to 12 µM | – | – | – | 9 to 12 µM
O=c1oc2ccccc2c(O)c1C(c1ccc(F)cc1)c1c(O)c2ccccc2oc1=O [Compound 6, 3,3′-(4-Fluorobenzylidene)-bis-[4-hydroxycoumarin]] | – | 214.5 °C | – | – | – | – | – | – | – | – | – | 39 µM | 8.1 µM | 7.7 µM | –
COc1ccc(OC)c(C(c2c(O)c3ccccc3oc2=O)c2c(O)c3ccccc3oc2=O)c1 [Compound 14, 3,3′-(2,5-Dimethoxybenzylidene)-bis-[4-hydroxycoumarin]] | > 100 µM | 181.6 °C | > 100 µM | >100 µM | > 100 µM | > 100 µM | > 100 µM | – | – | – | – | – | – | – | –
O=c1oc2ccccc2c(O)c1C(c1ccc(C(F)(F)F)cc1)c1c(O)c2ccccc2oc1=O [Compound 7, 3,3′-(4-Trifluoromethylbenzylidene)-bis-[4-hydroxycoumarin]] | > 4 µM | 271.3 °C | > 4 µM | 20 µM | > 4 µM | > 4 µM | > 4 µM | – | – | – | – | – | – | – | –
Nc1nc(O)c2ncn(COC(CO)CO)c2n1 [Ganciclovir, 9-[(1,3-dihydroxy-2-propoxy)methyl]guanine, reference compound] | > 100 µM | – | > 100 µM | >100 µM | 0.025 µM | 0.03 µM | 0.1 µM | – | – | – | – | > 100 µM | 4.9 µM | > 100 µM | –
O=c1oc2ccccc2c(O)c1C(c1ccc(O)c(O)c1)c1c(O)c2ccccc2oc1=O [Compound 13, 3,3′-(3,4-Dihydroxybenzylidene)-bis-[4-hydroxycoumarin]] | > 20 µM | 227.5 °C | > 20 µM | 100 µM | > 20 µM | > 20 µM | > 20 µM | – | – | – | – | – | – | – | –
Nc1ccn(C[C@@H](CO)OCP(=O)(O)O)c(=O)n1 [Cidofovir, (S)-1-[3-hydroxy-2-(phosphonyl-methoxy)propyl]cytosine, reference compound] | > 250 µM | – | 7.9 µM | >250 µM | 0.9 µM | 1.5 µM | 1.5 µM | – | – | – | – | – | – | – | –
O=c1[nH]c(=O)n([C@H]2C[C@H](O)[C@@H](CO)O2)cc1/C=C/Br [Brivudin, (E)-5-(2-bromovinyl)-2’-deoxyuridine, reference compound] | > 250 µM | – | 3.2 µM | >250 µM | 0.06 µM | 182 µM | 50 µM | – | – | – | – | – | – | – | –
O=c1oc2ccccc2c(O)c1C(c1ccccc1[N+](=O)[O-])c1c(O)c2ccccc2oc1=O [Compound 9, 3,3’-(2-Nitrobenzylidene)-bis-[4-hydroxycoumarin]] | – | 202 °C | – | – | – | – | – | – | – | – | – | 34 µM | 14 µM | 8.3 µM | –
O=c1oc2ccccc2c(O)c1C(c1ccc(Br)cc1)c1c(O)c2ccccc2oc1=O | – | 267.2 °C | – | – | – | – | – | – | – | – | – | – | – | – | –
O=c1oc2ccccc2c(O)c1C(c1ccc([N+](=O)[O-])cc1)c1c(O)c2ccccc2oc1=O [Compound 8, 3,3′-(4-Nitrobenzylidene)-bis-[4-hydroxycoumarin]] | > 20 µM | – | > 20 µM | 100 µM | > 20 µM | > 20 µM | > 20 µM | – | – | – | – | 41 µM | 6.9 µM | 8.5 µM | –
